Our source for the IC50 and Relative potency values is ChEMBL document CHEMBL1130520, “Solid phase synthesis of C-terminal carbohydrate modified enkephalins” (Bioorg Med Chem Lett, 1997).

What all share (type): functional
The species named for test [1] is Cavia porcellus. In words: Compound was tested in vitro for inhibiting electrically stimulated muscle contractions in guinea pig ileum (GPI).
Test [2] is filed under the species Mus musculus. In words: Compound was tested in vitro for inhibiting electrically stimulated muscle contractions in mouse vas deferens (MVD). Particulars: Muscle tissue.
The species entered for test [3] is Mus musculus. Description: Compound was tested for relative potency with respect to the compound Enkephalinamide in MVD assay.
The species named for test [4] is Cavia porcellus. In words: Compound was tested for relative potency with respect to the compound Enkephalinamide in GPI assay.

Starred links: 1 amine or outer side, 2 acyl side, 3 side chain; linkers in the order of their positions; H or OH if unused. Non-standard residues stand in square brackets, D forms with d. Residues, ends and D or L forms follow the SMILES beside them. *: point of attachment. X1 = NC(=O)[C@@H]1O[C@@H](N*)[C@@H](O)[C@@H](O)[C@@H]1O; X3 = O=C(O)[C@@H]1O[C@@H](N*)[C@@H](O)[C@@H](O)[C@@H]1O; X2 = O=C(O)C1OC(NC(=O)C2OC(N*)C(O)C(O)C2O)C(O)C(O)C1O; hMet = CSCCC[C@H](N)C(=O)O; CO = O=C([*:1])[*:2]

Take `CC(C)C[C@H](NC(=O)NC1OC(C(=O)NC2OC(C(=O)O)C(O)C(O)C2O)C(O)C(O)C1O)C(=O)N[C@@H](Cc1ccccc1)C(=O)NCC(=O)NCC(=O)N[C@@H](Cc1ccc(O)cc1)C(=O)O` (stereo not given in full) ({X2-CO}-LFGGY-OH): the concentration for half-maximal inhibition (IC50) – broadly, the concentration that inhibits the measured activity by half – is 1040 nM in test [1] and 550 nM in test [2]. The Relative potency in test [3] was 2.56; in test [4] it was 0.52.

Consider `CC(C)C[C@H](NC(=O)[C@H](Cc1ccccc1)NC(=O)CNC(=O)CNC(=O)[C@@H](N)Cc1ccc(O)cc1)C(N)=O` (single isomer, unassigned) [[LEU5]ENKEPHALIN], for which the IC50 amounted to 540 nM in test [1] and 280 nM in test [2]. The Relative potency in test [3] and in test [4] was 1 in each case.

In the case of `CC(C)C[C@H](NC(=O)N[C@@H]1O[C@@H](C(=O)O)[C@@H](O)[C@H](O)[C@@H]1O)C(=O)N[C@@H](Cc1ccccc1)C(=O)NCC(=O)NCC(=O)N[C@@H](Cc1ccc(O)cc1)C(=O)O` ({X3-CO}-LFGGY-OH), the IC50 was found to be 200 nM in test [1] and 8 nM in test [2]. For the same compound, the Relative potency in test [3] was determined as 35.39; in test [4], 2.74.

Consider `CSCCC[C@H](NC(=O)N[C@@H]1O[C@@H](C(=O)O)[C@@H](O)[C@H](O)[C@@H]1O)C(=O)N[C@@H](Cc1ccccc1)C(=O)NCC(=O)NCC(=O)N[C@@H](Cc1ccc(O)cc1)C(=O)O` ({X3-CO}-[hMet]FGGY-OH), for which the IC50 in test [1] was 110 nM; in test [2], 70 nM. Also, the values for the Relative potency in test [3] and in test [4] were 3.8 and 4.54, respectively.

On to `CC(C)C[C@H](NC(=O)N[C@@H]1O[C@@H](C(N)=O)[C@@H](O)[C@H](O)[C@@H]1O)C(=O)N[C@@H](Cc1ccccc1)C(=O)NCC(=O)NCC(=O)N[C@@H](Cc1ccc(O)cc1)C(=O)O` ({X1-CO}-LFGGY-OH), for which the concentration for half-maximal inhibition (IC50) in test [1] was 3860 nM; in test [2], 110 nM. The Relative potency in test [3] was determined as 0.51; in test [4], 0.14.
